Molecules are shown by their SMILES.

In one assay the test system is HCT116 cells. The assay is described as follows: DNA microarray analysis (Example 8), correlation coefficients and hierarchical cluster analysis. In kind it is cell-based, human. The note with it: 24 hours treatment at twice the 50% growth inhibitory concentration, similarity among the compounds named together. The method, then:
HCT116 cells were cultured in an RPMI-1640 medium supplemented with 10% fetal bovine serum, 100 units/ml penicillin and 100 μg/ml streptomycin. The following cultivation and compound treatment were carried out in an incubator at 5% CO2 and 37° C. HCT116 cells were seeded in 10 cm-diameter cell culture dishes at 2.0×10^6 cells/dish, cultured for 24 hours and subjected to the following compound treatment.
In this example, changes in the gene expression of HCT116 cells upon treatments with 12 compounds, i.e., E7820 (0.16 μM), E7070 (0.26 μM), LY186641 (59 μM), LY295501 (24 μM), LY-573636 (9.6 μM), CQS (4.0 μM), MST16 (100 μM), etoposide (3.6 μM), ethoxzolamide (410 μM), capsaicin (280 μM), trichostatin A (0.16 μM) and kenpaullone (7.1 μM) were examined.
The concentration of each compound used for the treatment was set to twice the 50% growth inhibitory concentration of each compound to the HCT116 cells (based on three days of antiproliferatrive activity using MTT). The cells were collected 24 hours after the treatment at the concentration indicated in parentheses following each compound name above. Similarly, cells cultured for 24 hours without the addition of any compound were also collected.
Total RNA extraction from the collected cells was performed using TRIZOL reagent (Invitrogen) according to the attached instruction.
Gene expression analysis using a DNA microarray was carried out in the same manner as “(2) Analysis of gene expression using DNA microarray” in Example 7.
This example was conducted for each sample in duplicate (for the convenience of the experiment, samples were given branch numbers like control-1, control-2, E7070-1, E7070-2 and so on for distinction). Then, GeneChip (Affymetrix) system (Human Focus array) was used for analyzing changes in the gene expression induced by each compound.
Twenty-six “.cel” files obtained in this example (13 samples (a control+12 compounds)×2) were subjected to RMA method (robust multi-array average method (Biostatistics (2003), 4, 249-264)) for normal distribution at probe level, and then the logarithm value of the signal intensity at gene level was calculated. Next, the logarithm value of the signal intensity of the untreated group (control-1) was subtracted from the logarithm value of the signal intensity of the compound-treated group for each gene to obtain the logarithm value of the signal ratio of the compound-treated group to control-1. Then, cosine correlation coefficients were calculated as correlation coefficients between the experiments (FIG. 5). Based on these correlation coefficients, hierarchical cluster analysis was performed according to UPGMA method (Unweighted Pair Group Method with Arithmetic mean method) (FIG. 6). Control-2 was also subjected to similar calculation (FIGS. 7 and 8). The softwares used were R 2.0.1 (http://www.r-project.org/) and affy package 1.5.8 (http://www.bioconductor.org).

In assay [1] the test system is human colon cancer cell line Colo320DM. The assay is described as follows: subcutaneous transplant model of human colon cancer cell line (Colo320DM), E7820 and Oxaliplatin. To be noted: Colo320DM nude mouse; E7820 50 mg/kg twice a day, two weeks, oral; Oxaliplatin 10 mg/kg once in four days x3, intravenous; control 11.99 ± 1.35. It counts as in vivo.
For assay [2], the system named is DNA-topoisomerase II mRNA. The assay is described as follows: quantification of DNA-topoisomerase II mRNA by RT-PCR. It counts as cell-based, human. To be noted: HUVEC, 1 μM, six hours; untreated group 4.4 μg/ml. The method, then:
2×10^6 of human umbilical vein endothelial cells were seeded in a 25 cm^2 cell culture bottle and cultured in a CO2 incubator at 37° C. using a EGM-2 medium (Sanko Junyaku) overnight. On the following day, E7820 was added to give 1 μM. Six hours later, RNA was prepared from the cells. Specifically, the medium was removed from the cells. The cells were added with and dissolved in 3 ml of ISOGEN (Wako Pure Chemical Industries), added with an equal volume of CHCl3 and agitated. Then, the water phase was extracted. Half the amount of the water phase of isopropanol was added, left to stand for 5 minutes and centrifuged to collect the precipitate. The precipitate was washed with 70% ethanol, added with and dissolved in sterile water and absorbance at 260 nm was determined with a spectrophotometer to quantify the RNA amount.
Subsequently, TaqMan Gold RT-PCR kit (Applied Biosystems) was used to perform RT-PCR reaction. Specifically, 0.1 μg of RNA was added to 50 μl of the reaction solution, and subjected to reactions at 25° C. for 10 minutes, 48° C. for 30 minutes and 95° C. for 5 minutes to prepare cDNA. Then, a primer for determining DNA-topoisomerase II mRNA (ABI Taqman probe Hs00172214 ml) was used for PCR reaction and then ABI7700 (Applied Biosystems) was used for quantifying RNA amount.

In assay [3] the test system is human colon cancer cell line Colo320DM. The assay is described as follows: subcutaneous transplant model of human colon cancer cell line (Colo320DM), E7820 and CPT-11. The note with it: Colo320DM nude mouse; E7820 50 mg/kg twice a day, two weeks, oral; CPT-11 100 mg/kg once in four days x3, intravenous; control 11.99 ± 1.35.
Description: Human colon cancer cell line Colo320DM (purchased from Dainippon Pharmaceutical) was cultured in RPMI1640 (containing 10% FBS) in a 5% carbon dioxide incubator at 37° C. to about 80% confluence, and the cells were collected with trypsin-EDTA. Using a phosphate buffer containing 50% matrigel, 7.5×10^7 cells/mL suspension was prepared, and 0.1 mL each of the resulting cell suspension was subcutaneously transplanted to a nude mouse at the side of its body. […] The major and minor axes of tumors were measured with Digimatic caliper (Mitsutoyo), and tumor volumes and relative tumor volumes were calculated according to the following formulae.
Tumor Volume TV=Major axis of tumor(mm)×(minor axis of tumor)^2(mm^2)/2
(§1) Relative Tumor Volume RTV=Tumor volume on measurement day/Tumor volume on the first administration day
Assay [4] relates to human pancreas cancer cell line KP-1. The assay is described as follows: subcutaneous transplant model of human pancreas cancer cell line (KP-1), E7820 and Gemcitabine. To be noted: KP-1 nude mouse; E7820 50 mg/kg twice a day, three weeks, oral; Gemcitabine 200 mg/kg once in three days x4, intravenous; control 14.8 ± 2.28.
Description: Human pancreas cancer cell line KP-1 (obtained from the National Kyushu Cancer Center) was cultured in RPMI1640 (containing 10% FBS) in a 5% carbon dioxide incubator at 37° C. to about 80% confluence, and the cells were collected with trypsin-EDTA. Using a phosphate buffer, 1×10^8 cells/mL suspension was prepared, and 0.11 mL each of the resulting cell suspension was subcutaneously transplanted to a nude mouse at the side of its body. […] The major and minor axes of tumors were measured with Digimatic caliper (Mitsutoyo), and tumor volumes and relative tumor volumes were calculated according to the following formulae.
Tumor Volume TV=Major axis of tumor(mm)×(Minor axis of tumor)^2(mm^2)/2
as §1
The next assay relates to HCT116-C9. The assay is described as follows: cell growth inhibition assay (MTT), parent line of E7070-resistant lines. In kind it is cell-based, human. The note with it: HCT116-C9, 72 hours, Example 11, read-out: antiproliferative activity IC50. The method, then: An E7070-resistant cell line was used to assess the antiproliferative activities of E7820, LY186641, LY295501, LY-ASAP and CQS. HCT116-C9 was a substrain separated from human colon cancer-derived HCT116 (American Type Culture Collection, Manassas, Va., U.S.A.). This HCT116-C9 was cultured in the presence of E7070 while incrementally increasing the E7070 concentration, thereby obtaining E7070-resistant substrains HCT116-C9-C1 and HCT116-C9-C4 (Molecular Cancer Therapeutics, 2002, 1, 275-286).
Three cell lines, i.e., HCT116-C9, HCT116-C9-C1 and HCT116-C9-C4, were each seeded at 3000 cells/well onto a 96-well microplate (flat bottom) (50 μl/well). Twenty-four hours later, they were added with a 3-fold dilution series of each compound (50 μl/well). Seventy-two hours later, the antiproliferative activities were assessed by MTT method (Mossmann T., J. Immunol. Methods, 1983, 65, 55-63). The 50% growth inhibitory concentrations to the cancer cells were obtained by a least square method.
In exactly the same manner as in Example 10, an E7070-resistant cell line was used to assess the antiproliferative activities of LY573636 as well as those of E7070.

Take `O=C(Nc1ccc(Cl)cc1)NS(=O)(=O)c1ccc2c(c1)CCC2` [LY186641, N-[[(4-chlorophenyl)amino]carbonyl]-2,3-dihydro-1H-indene-5-sulfonamide]: the “changes in gene expression (correlation coefficients, hierarchical cluster analysis)” value (from here on “changes in gene expression”) in the assay on HCT116 cells was “very similar genetic alterations”. `Cc1ccc(NS(=O)(=O)c2cccc(C#N)c2)c2[nH]cc(C#N)c12` [E7820, N-(3-cyano-4-methyl-1H-indole-7-yl)-3-cyanobenzenesulfonamide]: the “Relative tumor volume on Day 15 Average ± standard deviation” value in assay [1] and in assay [3] was 7.05 ± 1.15 each time. Moreover, the “amount of DNA-topoisomerase II mRNA” value in assay [2] is 1.6 µg/mL. In addition, in the assay on HCT116 cells, the “changes in gene expression” value is recorded as “very similar genetic alterations”. In addition, the “Relative tumor volume on Day 22 Average ± standard deviation” value in assay [4] is listed as 8.81 ± 2.57. Take `O=C(Nc1ccc(Cl)c(Cl)c1)NS(=O)(=O)c1ccc2c(c1)CCO2` [LY295501, N-[[(3,4-dichlorophenyl)amino]carbonyl]-2,3-dihydrobenzofuran-5-sulfonamide]: in the assay with HCT116 cells, the “changes in gene expression” value is given as “very similar genetic alterations”. Still for that read-out and setting: as for `Nc1ccc(S(=O)(=O)Nc2cnc3c(Cl)cccc3n2)cc1` [CQS, 2-sulfanylamide-5-chloroquinoxaline], the entry is “very similar genetic alterations”. The term IC50 denotes the concentration that gives 50% inhibition. For `NS(=O)(=O)c1ccc(S(=O)(=O)Nc2cccc3c(Cl)c[nH]c23)cc1` [E7070, N-(3-chloro-1H-indole-7-yl)-4-sulfamoylbenzenesulfonamide], the “changes in gene expression” value in the assay with HCT116 cells is given as “very similar genetic alterations”. Also, the IC50 in the assay on HCT116-C9 was 0.127 µM. As for `O=C(NS(=O)(=O)c1ccc(Br)s1)c1ccc(Cl)cc1Cl` [LY573636, N-(2,4-dichlorobenzoyl)-5-bromothiophene-2-sulfonamide], the “changes in gene expression” value in the assay on HCT116 cells is reported as “very similar genetic alterations”.
